Data from paper PMC6232145, “Intrinsic disorder in the regulatory N-terminal domain of diacylglycerol acyltransferase 1 from Brassica napus” (Scientific Reports, 2018).

Tests used:
[1] = molecular target: T1, Brassica napus diacylglycerol acyltransferase 1 (BnaDGAT1, isoform BnaC.DGAT1.a) (Brassica napus, UniProt Q9M4V2); test: ITC ([…] stoichiometry); supported by CD; format: binding
T1 construct: gene DGAT1-4; BnaDGAT1_1-113, cytoplasmic N-terminal domain (residues 1-113), N-terminal 10 x His-tag
T1 sequence (Q9M4V2 1-113): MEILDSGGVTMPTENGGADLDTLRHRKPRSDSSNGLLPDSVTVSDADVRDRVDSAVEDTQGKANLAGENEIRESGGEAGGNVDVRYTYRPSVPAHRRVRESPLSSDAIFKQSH

[2] = molecular target: T1, Brassica napus diacylglycerol acyltransferase 1 (BnaDGAT1, isoform BnaC.DGAT1.a); test: ITC ([…] stoichiometry); supported by thermal shift (about […] degree Tm increase) and CD; format: binding

## CC(C)(COP(=O)(O)OP(=O)(O)OC[C@H]1O[C@@H](n2cnc3c(N)ncnc32)[C@H](O)[C@@H]1OP(=O)(O)O)[C@@H](O)C(=O)NCCC(=O)NCCS [CoA]
[1]
  Kd: 60 ± 10 µM

## CCCCCCCC/C=C\CCCCCCCC(=O)SCCNC(=O)CCNC(=O)[C@H](O)C(C)(C)COP(=O)(O)OP(=O)(O)OC[C@H]1O[C@@H](n2cnc3c(N)ncnc32)[C@H](O)[C@@H]1OP(=O)(O)O [oleoyl-CoA]
[2]
  Kd: 10 ± 0.01 µM
